The assay relates to miR-34a promoter. The assay can be described thus: Bisulfite sequencing of miR-34a promoter CpG methylation after 5Aza-2′dC treatment. As to conditions: LAPC-4 cells. The assay is classed as cell-based, human. An excerpt:
(a) Pattern of CpG methylation in the miR-34a promoter region in prostate epithelial cells and derived cancer cell lines. The depicted region corresponds to 2.5 kbp upstream of the transcriptional start site (TSS, position indicated by arrow). Vertical bars represent CpG-dinucleotides. The position of the p53 binding site is indicated. The horizontal bars indicate amplified PCR products which were sub-cloned and analyzed by sequencing (gray: distal fragment, black: proximal fragment). The combined results obtained by sequencing of 8 independent subclones are shown for each cell line. Black areas represent the degree of cytosine methylation at the respective CpG position. The white shaded areas indicate methylation after treatment of LAPC-4 cells with 5Aza-2′dC. The open rectangles correspond to the regions covered by the MSP primers. IVM DNA was used as positive control for amplification of the M product. BPH1: benign prostate hyperplasia cells immortalized with SV40 large T antigen. IVM: in vitro methylated DNA.
Reversion of genomic methylation. Cells were grown in the presence of 1 μM 5-aza-2′deoxycytidine (5Aza-2′dC, Sigma) for 72 hours and 300 nM trichostatin A (TSA, Sigma) for the last 24 hours. […]
Bisulfite sequencing. […] For each cell line at least 8 individual clones were sequenced on both strands using M13 primers and BigDye terminator, and analyzed on a 3700 capillary sequencer (Applera).

With `Nc1ncn([C@H]2C[C@H](O)[C@@H](CO)O2)c(=O)n1` [5Aza-2′dC, 5-aza-2′deoxycytidine], the “level of CpG methylation of miR-34a” value is reported as “reduction in the level of CpG methylation”.

Values taken from US20130096185A1, “INACTIVATION OF miR-34a BY ABERRANT CpG METHYLATION IN CANCER” (priority 2008, published 2013).
